Assay results as given in ChEMBL document CHEMBL3108776, “Discovery of Small Molecule RIP1 Kinase Inhibitors for the Treatment of Pathologies Associated with Necroptosis” (ACS Med Chem Lett, 2013).
pIC50: −log10 of the molar value. ≈ marks a conversion by molar mass, not a printed value.

Tests used:
[1] = target: T1, Receptor-interacting serine/threonine-protein kinase 1 (Homo sapiens, UniProt Q13546); assay: Displacement of (14-(2-{[3-({2-{[4-(cyanomethyl)phenyl]amino}-6-[(5-cyclopropyl-1H-pyrazol-3-yl)amino]-4-pyrimidinyl}amino)propyl]amino}-2-oxoethyl)-16,16,18,18-tetramethyl-6,7,7a,8a,9,10,16,18-octahydrobenzo[2'',3'']indolizino[8'',7'':5',6']pyrano[3',2':3,4]pyrido[1,2-a]indol-5-ium-2-sulfonate from human N-terminal His-GST-TEV-fused RIP1 kinase domain (1 to 375) expressed in baculovirus infected insect Sf9 cells preincubated for 10 mins followed by fluorescent ligand addition measured after 15 mins by fluorescence polarization assay
T1 sequence (Q13546 whole entry): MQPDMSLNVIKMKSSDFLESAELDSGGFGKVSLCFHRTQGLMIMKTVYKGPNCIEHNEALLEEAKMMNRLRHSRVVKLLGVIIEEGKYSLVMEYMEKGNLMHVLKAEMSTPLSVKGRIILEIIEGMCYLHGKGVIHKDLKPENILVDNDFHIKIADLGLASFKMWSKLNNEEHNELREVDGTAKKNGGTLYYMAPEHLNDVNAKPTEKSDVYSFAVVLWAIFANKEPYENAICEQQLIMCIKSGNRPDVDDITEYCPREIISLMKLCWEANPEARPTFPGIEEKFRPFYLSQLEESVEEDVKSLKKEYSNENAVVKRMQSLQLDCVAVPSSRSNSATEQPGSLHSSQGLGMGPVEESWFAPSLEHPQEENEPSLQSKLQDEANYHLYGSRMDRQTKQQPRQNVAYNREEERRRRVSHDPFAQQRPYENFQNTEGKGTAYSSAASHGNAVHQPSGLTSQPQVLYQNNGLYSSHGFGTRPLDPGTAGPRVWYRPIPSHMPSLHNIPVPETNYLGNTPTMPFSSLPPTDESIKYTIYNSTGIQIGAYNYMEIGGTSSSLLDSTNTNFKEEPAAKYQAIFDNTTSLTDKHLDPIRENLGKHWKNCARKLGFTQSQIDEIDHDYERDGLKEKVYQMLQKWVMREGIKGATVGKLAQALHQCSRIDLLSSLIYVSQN

[2] = target: T1, Receptor-interacting serine/threonine-protein kinase 1; assay: Inhibition of human N-terminal His-GST-TEV-fused RIP1 kinase domain (1 to 375) autophosphorylation expressed in baculovirus infected insect Sf9 cells after 4 hrs by ADP-Glo luminescence assay
[3] = Solubility of the compound; type: physicochemical
[4] = Permeability of the compound; type: ADME; conditions: not told; read-out: permeability
[5] = Cmax in C57BL/6 mouse at 2 mg/kg, po measured at 4 hrs; type: ADME, organism-based; design: dose 2 mg/kg, route oral; conditions: in vivo
Mus musculus [6] = assay: Antiinflammatory activity in mouse TNFalpha-induced lethal shock model assessed as protection from body temperature loss at 0.2 mg/kg, po administered 15 mins prior to TNFalpha challenge measured over 7 hrs relative to TNFalpha-treated control; type: functional
[7] = Fraction unbound in mouse; type: ADME, organism-based; conditions: in vivo
[8] = AUC in C57BL/6 mouse at 2 mg/kg, po measured at 4 hrs; type: ADME, organism-based; design: dose 2 mg/kg, route oral; conditions: plasma
Mus musculus [9] = assay: Antiinflammatory activity in mouse TNFalpha-induced lethal shock model assessed as protection from body temperature loss at 2 mg/kg, po administered 15 mins prior to TNFalpha challenge measured over 7 hrs relative to TNFalpha-treated control; type: functional
Mus musculus [10] = assay: Antiinflammatory activity in mouse TNFalpha-induced lethal shock model assessed as protection from body temperature loss at 20 mg/kg, po administered 15 mins prior to TNFalpha challenge measured over 7 hrs relative to TNFalpha-treated control; type: functional
Mus musculus [11] = assay: Antiinflammatory activity in po dosed mouse TNFalpha-induced lethal shock model assessed as protection from body temperature loss administered 15 mins prior to TNFalpha challenge measured over 7 hrs; type: functional, organism-based

Row | pIC50 [1] | pIC50 [2] | SMILES | also measured
1 | 8.49 | 8.00 | CCS(=O)(=O)c1ccc(-c2cnc3[nH]cc(-c4cccc(NC(=O)Nc5cc(C(F)(F)F)ccc5F)c4)c3c2)cc1 | 
2 | 7.49 | 8.20 | COc1cccc(NC(=O)Nc2cccc(-c3c[nH]c4ncc(-c5ccccc5)cc34)c2)c1 | 
3 | 8.10 | 8.40 | O=C(Nc1cccc(-c2c[nH]c3ncc(-c4cccnc4)cc23)c1)Nc1cc(C(F)(F)F)ccc1F | 
4 | 7.70 | 7.60 | Nc1nccc2c(-c3ccc(NC(=O)Nc4cccc(C(F)(F)F)c4)cc3)cccc12 | 
5 | 6.80 | 7.60 | Nc1nccc2c(-c3ccc(NC(=O)Nc4cc(F)cc(C(F)(F)F)c4)cc3)cccc12 | 
6 | 5.70 | 6.30 | O=C(Nc1cccc(-c2c[nH]c3ncc(-c4ccccc4)cc23)c1)NC1CCCC1 | 
7 | 5.89 | 6.40 | O=C(Nc1ccccc1)Nc1cccc(-c2c[nH]c3ncc(-c4ccccc4)cc23)c1 | 
8 | 5.49 | 6.20 | Nc1nccc2c(-c3ccc(NC(=O)Nc4cc(C(F)(F)F)ccc4Cl)cc3)cccc12 | 
9 | 7.80 | 8.00 | NC(=O)c1cccc(-c2cnc3[nH]cc(-c4cccc(NC(=O)Nc5cc(C(F)(F)F)ccc5F)c4)c3c2)c1 | 
10 | 7.20 | 8.00 | CS(=O)(=O)c1cccc(-c2cnc3[nH]cc(-c4cccc(NC(=O)Nc5cc(C(F)(F)F)ccc5F)c4)c3c2)c1 | 
11 | 7.89 | 6.89 | Nc1nccc2c(-c3ccc(NC(=O)Nc4cc(C(F)(F)F)ccc4F)cc3)cccc12 | 
12 | 7.49 | 7.49 | O=C(Nc1cccc(-c2c[nH]c3ncc(-c4ccccc4)cc23)c1)Nc1cccc(C(F)(F)F)c1 | 
13 | 7.49 | 7.30 | Nc1ccc(-c2cnc3[nH]cc(-c4cccc(NC(=O)Nc5cc(C(F)(F)F)ccc5F)c4)c3c2)cc1 | 
14 | 6.49 | 8.00 | Nc1nccc2c(-c3ccc(NC(=O)Nc4ccc(F)c(C(F)(F)F)c4)cc3)cccc12 | 
15 | 7.80 | 7.80 | O=C(Nc1cccc(-c2c[nH]c3ncc(-c4ccccc4)cc23)c1)Nc1cccc([N+](=O)[O-])c1 | 
16 | 7.80 | 8.22 | O=C(Nc1cccc(-c2c[nH]c3ncc(-c4cn[nH]c4)cc23)c1)Nc1cc(C(F)(F)F)ccc1F | 
17 | 7.89 | 8.00 | CC(=O)c1cccc(NC(=O)Nc2cccc(-c3c[nH]c4ncc(-c5ccccc5)cc34)c2)c1 | 
18 | 6.70 | 7.10 | O=C(Nc1cccc(-c2c[nH]c3ncc(-c4ccccc4)cc23)c1)Nc1cc(C(F)(F)F)ccc1F | 

Further lines, the compound ahead of its results:

Row | SMILES | pIC50 [1] | pIC50 [2] | also measured
19 | Nc1ncnc2occ(-c3ccc(NC(=O)Nc4ccc5ccccc5c4)cc3)c12 | 7.00 |  | 
20 | Nc1ncnc2occ(-c3ccc(NC(=O)Nc4cc(F)cc(C(F)(F)F)c4)cc3)c12 | 6.89 | 7.20 | 
21 | Nc1ncnc2occ(-c3ccc(NC(=O)Nc4cc(C(F)(F)F)ccc4Cl)cc3)c12 | < 5.00 | 5.60 | 
22 | Nc1ncnc2occ(-c3ccc(NC(=O)Nc4ccc(Cl)c(C(F)(F)F)c4)cc3)c12 | 6.80 | 7.49 | 
23 | Nc1ncnc2occ(-c3ccc(NC(=O)Nc4cccc(C(F)(F)F)c4F)cc3)c12 | 6.60 | 6.70 | 
24 | CC(C)(C)c1cc(NC(=O)Nc2ccc(-c3coc4ncnc(N)c34)cc2)no1 | 7.49 | 7.80 | 
25 | Nc1ncnc2occ(-c3ccc(NC(=O)Nc4ccc(F)c(C(F)(F)F)c4)cc3)c12 | 6.80 | 6.30 | 
26 | Nc1nccc2c(-c3ccc(NC(=O)Nc4cccc(C(F)(F)F)c4F)cc3)cccc12 | < 5.00 | 5.40 | 
27 | Nc1ncnc2occ(-c3ccc(NC(=O)Nc4cccc(C(F)(F)F)c4)cc3)c12 [GW795493X] | 7.70 | 8.00 | 
28 | Nc1ncnc2occ(-c3ccc(NC(=O)Nc4cc(C(F)(F)F)cc(C(F)(F)F)c4)cc3)c12 [GW795486X] | 6.49 | 7.49 | 
29 | Nc1nccc2c(-c3ccc(NC(=O)Nc4ccc(Cl)c(C(F)(F)F)c4)cc3)cccc12 | 7.40 | 6.80 | 
30 | CCc1cccc(NC(=O)Nc2ccc(-c3coc4ncnc(N)c34)cc2)c1 | 7.60 | 8.00 | 
31 | Nc1ncnc2occ(-c3ccc(NC(=O)Nc4cc(C(F)(F)F)ccc4F)cc3)c12 [GW770249X] |  |  | solubility [3]: 13 µM (≈ 5.61 µg/mL); Papp [4]: 21 ×10⁻⁶ cm/s; Cmax [5]: 1100 ng/mL; Activity (Mus musculus [6]): 15%; Fu [7]: 0.04%; AUC at 4 h [8]: 14000 ng·h/mL; Activity (Mus musculus [9]): 22%; Activity (Mus musculus [10]): 77%; Activity (Mus musculus [11]): Dose-dependent effect
32 | Nc1ncnc2occ(-c3ccc(NC(=O)Nc4cccc(Cl)c4)cc3)c12 | 6.80 | 6.70 | 
